Measurements reported in PubChem BioAssay AID248 (DTP/NCI, 2004).
Inconclusive results and toxic doses are left out. Cut-off read from the data, not from the text of the source: active = T/C of 150% or more; inactive = T/C below 125%.

System: L1210 leukemia ip in BDF1 mice, survival T/C
Assay: NCI In Vivo Anticancer Drug Screen. Data for tumor model L1210 Leukemia (intraperitoneal) in B6D2F1 (BDF1) mice
Details: endpoint: mean survival time, higher = longer survival
Outline: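 Each compound was tested against a transplantable tumor grown in mice. The endpoint was survival, with treated animals benchmarked against vehicle controls as a simple ratio.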

[1] = dose: 100.0 mg/kg/injection, schedule: Q01DX001 (ip), vehicle: carboxymethylcellulose (CMC)
[2] = dose: 100.0 mg/kg/injection, schedule: Q01DX009 (ip), vehicle: Klucel (hydroxypropylcellulose) (HPC)
[3] = dose: 100.0 mg/kg/injection, schedule: Q04DX002 (ip), vehicle: Klucel (hydroxypropylcellulose) (HPC)
[4] = dose: 200.0 mg/kg/injection, schedule: Q01DX009 (ip), vehicle: Klucel (hydroxypropylcellulose) (HPC)
[5] = dose: 200.0 mg/kg/injection, schedule: Q04DX002 (ip), vehicle: Klucel (hydroxypropylcellulose) (HPC)
[6] = dose: 400.0 mg/kg/injection, schedule: Q04DX002 (ip), vehicle: Klucel (hydroxypropylcellulose) (HPC)
[7] = dose: 50.0 mg/kg/injection, schedule: Q01DX009 (ip), vehicle: Klucel (hydroxypropylcellulose) (HPC)
[8] = dose: 100.0 mg/kg/injection, schedule: Q01DX009 (ip), vehicle: saline with Tween-80
[9] = dose: 200.0 mg/kg/injection, schedule: Q01DX009 (ip), vehicle: saline with Tween-80
[10] = dose: 400.0 mg/kg/injection, schedule: Q01DX009 (ip), vehicle: saline with Tween-80
[11] = dose: 100.0 mg/kg/injection, schedule: Q04DX003 (ip), vehicle: saline with Tween-80
[12] = dose: 200.0 mg/kg/injection, schedule: Q04DX003 (ip), vehicle: saline with Tween-80
[13] = dose: 100.0 mg/kg/injection, schedule: Q04DX003 (ip), vehicle: other
[14] = dose: 200.0 mg/kg/injection, schedule: Q04DX003 (ip), vehicle: other
[15] = dose: 100.0 mg/kg/injection, schedule: Q01DX009 (ip), vehicle: saline
[16] = dose: 100.0 mg/kg/injection, schedule: Q04DX003 (ip), vehicle: saline
[17] = dose: 200.0 mg/kg/injection, schedule: Q01DX009 (ip), vehicle: saline
[18] = dose: 200.0 mg/kg/injection, schedule: Q04DX003 (ip), vehicle: saline
[19] = dose: 400.0 mg/kg/injection, schedule: Q04DX003 (ip), vehicle: saline
[20] = dose: 100.0 mg/kg/injection, schedule: Q01DX001 (ip), vehicle: saline
[21] = dose: 200.0 mg/kg/injection, schedule: Q01DX001 (ip), vehicle: saline
[22] = dose: 400.0 mg/kg/injection, schedule: Q01DX001 (ip), vehicle: saline

Measured: T/C

Cc1cc(-c2ccccc2)c2ccc3c(-c4ccccc4)cc(C)nc3c2n1
inactive: dose: 0.5 mg/kg/injection, schedule: Q01DX001 (ip), vehicle: carboxymethylcellulose (CMC) 105 % of control | dose: 1.0 mg/kg/injection, schedule: Q01DX001 (ip), vehicle: carboxymethylcellulose (CMC) 112 % of control | dose: 2.0 mg/kg/injection, schedule: Q01DX001 (ip), vehicle: carboxymethylcellulose (CMC) 95 % of control | dose: 4.0 mg/kg/injection, schedule: Q01DX001 (ip), vehicle: carboxymethylcellulose (CMC) 97 % of control | dose: 8.0 mg/kg/injection, schedule: Q01DX001 (ip), vehicle: carboxymethylcellulose (CMC) 100 % of control | dose: 10.0 mg/kg/injection, schedule: Q01DX001 (ip), vehicle: carboxymethylcellulose (CMC) 100 % of control | dose: 20.0 mg/kg/injection, schedule: Q01DX001 (ip), vehicle: carboxymethylcellulose (CMC) 95 % of control | dose: 80.0 mg/kg/injection, schedule: Q01DX001 (ip), vehicle: carboxymethylcellulose (CMC) 95 % of control | [1] 97 % of control

O=C1NC(=S)S/C1=C\c1c(Cl)cccc1Cl
inactive: dose: 75.0 mg/kg/injection, schedule: Q01DX001 (ip), vehicle: other 97 % of control

CS(=O)(=O)Cc1ccccc1
inactive: [2] 101 % of control | [3] 86 % of control | [4] 101 % of control | [5] 101 % of control | dose: 400.0 mg/kg/injection, schedule: Q01DX009 (ip), vehicle: Klucel (hydroxypropylcellulose) (HPC) 86 % of control | [6] 90 % of control

O=C(Cc1ccccc1)NCc1ccco1
inactive: dose: 25.0 mg/kg/injection, schedule: Q01DX009 (ip), vehicle: Klucel (hydroxypropylcellulose) (HPC) 100 % of control | [7] 94 % of control | [3] 90 % of control

Cc1cc(C)c(NC(=O)c2ccc(Cl)cc2Cl)c(C)c1
inactive: [3] 95 % of control | [5] 106 % of control | [6] 95 % of control

Cc1ccc(/C=N/NC(=O)CNC(=O)c2ccccc2)cc1
inactive: [8] 93 % of control | [9] 96 % of control | [10] 98 % of control

O=C(O)CCCc1ccc2sc3ccccc3c2c1
inactive: dose: 100.0 mg/kg/injection, schedule: Q01DX001 (ip), vehicle: saline with Tween-80 100 % of control | dose: 200.0 mg/kg/injection, schedule: Q01DX001 (ip), vehicle: saline with Tween-80 101 % of control

C/C=C(/C(=O)c1ccc(-c2ccccc2)cc1)c1ccccc1
inactive: [8] 105 % of control | [11] 95 % of control | [9] 94 % of control | [12] 89 % of control | [10] 90 % of control | dose: 400.0 mg/kg/injection, schedule: Q04DX003 (ip), vehicle: saline with Tween-80 94 % of control

Cc1cc(OCc2nc(N)nc(N)c2-c2ccc(Cl)c(Cl)c2)ccc1NC(=O)c1ccc(S(=O)(=O)F)cc1
inactive: dose: 75.0 mg/kg/injection, schedule: Q01DX001 (ip), vehicle: saline with Tween-80 100 % of control

N#CC12C(=O)C3C4C=CC(C4)C3C(=O)C1(C#N)C1C=CC2C1 (stereo not drawn)
inactive: [11] 94 % of control | [12] 92 % of control

Cc1cc(C)c(-n2c(-c3ccc(Cl)cc3)nnc2-c2ccc(Br)cc2)c(C)c1
inactive: dose: 100.0 mg/kg/injection, schedule: Q04DX003 (ip), vehicle: Klucel (hydroxypropylcellulose) (HPC) 101 % of control | dose: 200.0 mg/kg/injection, schedule: Q04DX003 (ip), vehicle: Klucel (hydroxypropylcellulose) (HPC) 90 % of control | dose: 400.0 mg/kg/injection, schedule: Q04DX003 (ip), vehicle: Klucel (hydroxypropylcellulose) (HPC) 95 % of control

C#CCC#Cc1ccccc1
inactive: [8] 89 % of control | [9] 92 % of control

CNC(=O)N(C(C)C)C1CCCCC1
inactive: [13] 102 % of control | [14] 96 % of control

C#CCN(C)C(=O)Nc1ccccc1
inactive: dose: 100.0 mg/kg/injection, schedule: Q04DX002 (ip), vehicle: saline with Tween-80 91 % of control | dose: 200.0 mg/kg/injection, schedule: Q04DX002 (ip), vehicle: saline with Tween-80 91 % of control | dose: 400.0 mg/kg/injection, schedule: Q04DX002 (ip), vehicle: saline with Tween-80 113 % of control

c1nc(N2CC2)c2cnn(C3CCCCO3)c2n1 (stereo not drawn)
inactive: dose: 50.0 mg/kg/injection, schedule: Q01DX001 (ip), vehicle: carboxymethylcellulose (CMC) 97 % of control | dose: 50.0 mg/kg/injection, schedule: Q01DX009 (ip), vehicle: saline 102 % of control | [1] 103 % of control | [15] 113 % of control | [16] 100 % of control | dose: 200.0 mg/kg/injection, schedule: Q01DX001 (ip), vehicle: carboxymethylcellulose (CMC) 106 % of control | [17] 112 % of control | [18] 97 % of control | dose: 400.0 mg/kg/injection, schedule: Q01DX001 (ip), vehicle: carboxymethylcellulose (CMC) 103 % of control

COc1ccc2c(CSc3nc(N)nc4nc[nH]c34)cc(=O)oc2c1
inactive: dose: 25.0 mg/kg/injection, schedule: Q04DX002 (ip), vehicle: Klucel (hydroxypropylcellulose) (HPC) 108 % of control | dose: 50.0 mg/kg/injection, schedule: Q04DX002 (ip), vehicle: Klucel (hydroxypropylcellulose) (HPC) 112 % of control | [3] 120 % of control | [5] 123 % of control | [6] 115 % of control

CCCCCCCCCCCCCCCCOc1ccc(F)cc1F
inactive: [3] 118 % of control | [5] 96 % of control | [6] 96 % of control

Cc1ccc[n+]([O-])c1Cl
inactive: [16] 100 % of control | [18] 87 % of control

CC(CNc1ccc(Cl)cc1)(CNc1ccc(Cl)cc1)[N+](=O)[O-]
inactive: [16] 92 % of control | [18] 88 % of control | [19] 92 % of control

CC(=O)CCCN(CCO)CCO
inactive: [15] 88 % of control | [16] 96 % of control | [17] 92 % of control | [18] 96 % of control | dose: 400.0 mg/kg/injection, schedule: Q01DX009 (ip), vehicle: saline 96 % of control | [19] 102 % of control

O=C(/C=C/c1ccccc1Cl)NCC(O)CO (stereo not drawn)
inactive: [13] 108 % of control | [14] 109 % of control | dose: 400.0 mg/kg/injection, schedule: Q04DX003 (ip), vehicle: other 109 % of control

C=CC=O
inactive: dose: 3.0 mg/kg/injection, schedule: Q01DX009 (ip), vehicle: saline 96 % of control | dose: 3.12 mg/kg/injection, schedule: Q01DX009 (ip), vehicle: saline 98 % of control | dose: 3.12 mg/kg/injection, schedule: Q04DX003 (ip), vehicle: saline 91 % of control | dose: 6.0 mg/kg/injection, schedule: Q01DX009 (ip), vehicle: saline 102 % of control | dose: 6.25 mg/kg/injection, schedule: Q01DX009 (ip), vehicle: saline 90 % of control | dose: 6.25 mg/kg/injection, schedule: Q04DX003 (ip), vehicle: saline 97 % of control | dose: 7.5 mg/kg/injection, schedule: Q04DX003 (ip), vehicle: saline 88 % of control | dose: 12.0 mg/kg/injection, schedule: Q01DX009 (ip), vehicle: saline 102 % of control | dose: 12.0 mg/kg/injection, schedule: Q04DX003 (ip), vehicle: Klucel (hydroxypropylcellulose) (HPC) 98 % of control | dose: 12.5 mg/kg/injection, schedule: Q04DX003 (ip), vehicle: saline 89 % of control | dose: 25.0 mg/kg/injection, schedule: Q04DX003 (ip), vehicle: Klucel (hydroxypropylcellulose) (HPC) 101 % of control | [20] 117 % of control | [21] 109 % of control | [22] 98 % of control

O=c1cc(CO)[nH]c(=O)[nH]1
inactive: dose: 50.0 mg/kg/injection, schedule: Q01DX001 (ip), vehicle: saline 104 % of control | [7] 94 % of control | [20] 102 % of control | [2] 90 % of control | [21] 98 % of control | [4] 97 % of control | [22] 98 % of control
